Entries after “also recorded” stand apart in the source; their conditions may differ. Where two headings read alike, the source gives them in different places.
How the values were obtained:
[1] = tested on: plasma miRNAs; details: 8 weeks
Description: To evaluate plasma biomarkers over time, surgically implanted catheters were used for non-invasive bi-weekly blood draws in the Dahl salt-sensitive rat model of congestive heart failure described in Example 1. Changes in plasma miRNA biomarkers with disease progression and therapeutic treatment with an LNA-modified antisense oligonucleotide targeting miR-208a (M−10101; SEQ ID NO: 12) were evaluated. The flowing experimental groups were tested:
The M-10591 oligonucleotide (SEQ ID NO:13) targets miR-67 from C. elegans, which is not expressed in mammalian tissue, and therefore was used as a control. Dahl salt-sensitive rats were implanted with catheters at week zero and baseline blood was taken. Following catheter implant surgery, high-salt diet was initiated. One week following the initiation of the 4.0% NaCl diet, rats were dosed subcutaneously (s.c.) with saline or antimiRs at 25 mg/kg once every 2 weeks. On alternating weeks (non-injection weeks) 1.5 mls of blood was drawn from the catheter for plasma isolation. Animals were sacrificed 8 weeks after the initial injection.
Plasma and tissue molecular endpoints were evaluated using Taqman RT-PCR assays. Specifically, RNA from plasma samples was isolated using Trizol LS (Invitrogen). Synthetic C. elegans miRNA sequences for lin-4 and miR-2 were added at a constant concentration to each sample to monitor purification efficiency and for normalization. Tissue RNA was isolated using standard Trizol RNA isolation. Standard ABI Taqman miRNA assay protocols were used to determine relative miRNA levels.
Changes in plasma miRNA levels between rats suffering from hypertension-induced heart failure (H S/saline group) and rats treated with an antimiR-208a oligonucleotide (HS/M-10101) were assessed at 8 weeks by both miRNA Taqman array card analysis (Tables 2 and 3) and real-time PCR analysis (Table 4).

[2] = tested on: miR-208a, Myh6, Myh7; test: Cardiac tissue markers by Taqman RT-PCR, 4% NaCl diet (Example 2); assay type: in vivo, rat; details: 25 mg/kg sc every 2 weeks
Description: The flowing experimental groups were tested:
Following catheter implant surgery, high-salt diet was initiated. […] Animals were sacrificed 8 weeks after the initial injection.
Tissue RNA was isolated using standard Trizol RNA isolation.

[3] = Down Regulated, HS-Saline vs. HS-10101, Real Time PCR
[4] = Up-regulated, HS-Saline vs. HS-10101, Real Time PCR
[5] = decreased in response to treatment, HS-saline/HS-10101, array card
[6] = increased in response to treatment, HS-10101/HS-Saline, array card
[7] = listed as antimiR-208a, 25 mg/kg

M-10101: antimiR targeting bases 2 to 17 of mature miR-208a, LNA and DNA linked by phosphorothioate bonds; 5′-CTTTTTGCTCGTCTTA-3′ (SEQ ID NO: 12) (all phosphorothioate, sugars by position and methylation of C not given here; LNA/DNA mixmer; listed as Homo sapiens)
Fold change of plasma hsa-miR-16 [1, 3]: 3.45 fold | Fold change of plasma hsa-miR-20a [1, 3]: 1.92 fold | Fold change of plasma hsa-miR-20b [1, 3]: 2.10 fold | Fold change of plasma hsa-miR-21 [1, 3]: 1.48 fold | Fold change of plasma hsa-miR-22 [1, 3]: 1.50 fold | Fold change of plasma hsa-miR-27a [1, 3]: 2.10 fold | Fold change of plasma hsa-miR-92a [1, 3]: 2.32 fold | Fold change of plasma hsa-miR-93 [1, 3]: 2.87 fold | Fold change of plasma hsa-miR-106b [1, 3]: 2.57 fold | Fold change of plasma hsa-miR-122 [1, 3]: 1.36 fold | Fold change of plasma hsa-miR-126 [1, 3]: 1.30 fold | Fold change of plasma hsa-miR-133a [1, 3]: 1.29 fold | Fold change of plasma hsa-miR-140 [1, 3]: 2.13 fold | Fold change of plasma hsa-miR-150 [1, 3]: 2.07 fold | Fold change of plasma hsa-miR-185 [1, 3]: 2.35 fold | Fold change of plasma hsa-miR-210 [1, 3]: 2.31 fold | Fold change of plasma hsa-miR-223 [1, 3]: 3.02 fold | Fold change of plasma hsa-miR-320 [1, 3]: 3.16 fold | Fold change of plasma hsa-miR-378 [1, 3]: 1.74 fold | Fold change of plasma hsa-miR-378* [1, 3]: 1.38 fold | Fold change of plasma hsa-miR-423-5p [1, 3]: 2.52 fold | Fold change of plasma hsa-miR-499 [1, 3]: 1.26 fold | Fold change of plasma hsa-miR-19b [1, 4]: 2.68 fold | Fold change of plasma hsa-miR-125a-5p [1, 4]: 2.05 fold | Fold change of plasma hsa-miR-143 [1, 4]: 1.53 fold | Fold change of plasma hsa-miR-145 [1, 4]: 2.17 fold | Fold change of plasma hsa-miR-195 [1, 4]: 2.10 fold | Fold change of plasma hsa-miR-199b-5p [1, 4]: 2.39 fold | Fold change of plasma hsa-miR-204 [1, 4]: 2.18 fold | Fold change of plasma hsa-miR-214 [1, 4]: 1.49 fold | Fold change of plasma hsa-let-7b [1, 5]: 1.09 fold | Fold change of plasma hsa-miR-16 [1, 5]: 2.04 fold | Fold change of plasma hsa-miR-17 [1, 5]: 1.41 fold | Fold change of plasma hsa-miR-18a [1, 5]: 2.01 fold | Fold change of plasma hsa-miR-20a [1, 5]: 2.43 fold | Fold change of plasma hsa-miR-20b [1, 5]: 4.87 fold | Fold change of plasma hsa-miR-24 [1, 5]: 1.17 fold | Fold change of plasma hsa-miR-25 [1, 5]: 1.33 fold | Fold change of plasma hsa-miR-26b [1, 5]: 1.98 fold | Fold change of plasma hsa-miR-27a [1, 5]: 2.74 fold | Fold change of plasma hsa-miR-27b [1, 5]: 1.18 fold | Fold change of plasma hsa-miR-29c [1, 5]: 1.34 fold | Fold change of plasma hsa-miR-30a [1, 5]: 1.28 fold | Fold change of plasma hsa-miR-30b [1, 5]: 1.21 fold | Fold change of plasma hsa-miR-92a [1, 5]: 1.20 fold | Fold change of plasma hsa-miR-93 [1, 5]: 2.93 fold | Fold change of plasma hsa-miR-101a [1, 5]: 1.11 fold | Fold change of plasma hsa-miR-103a [1, 5]: 1.16 fold | Fold change of plasma hsa-miR-106b [1, 5]: 2.15 fold | Fold change of plasma hsa-miR-122 [1, 5]: 1.59 fold | Fold change of plasma hsa-miR-125b-5p [1, 5]: 1.51 fold | Fold change of plasma hsa-miR-133a [1, 5]: 2.21 fold | Fold change of plasma hsa-miR-140-5p [1, 5]: 3.23 fold | Fold change of plasma hsa-miR-148a [1, 5]: 2.49 fold | Fold change of plasma hsa-miR-181c [1, 5]: 1.37 fold | Fold change of plasma hsa-miR-182 [1, 5]: 1.39 fold | Fold change of plasma hsa-miR-184 [1, 5]: 1.42 fold | Fold change of plasma hsa-miR-185 [1, 5]: 7.02 fold | Fold change of plasma hsa-miR-188-5p [1, 5]: 1.76 fold | Fold change of plasma hsa-miR-192 [1, 5]: 1.92 fold | Fold change of plasma hsa-miR-195 [1, 5]: 1.73 fold | Fold change of plasma hsa-miR-197 [1, 5]: 1.52 fold | Fold change of plasma hsa-miR-199a-5p [1, 5]: 4.95 fold | Fold change of plasma hsa-miR-203 [1, 5]: 1.13 fold | Fold change of plasma hsa-miR-218 [1, 5]: 1.32 fold | Fold change of plasma hsa-miR-222 [1, 5]: 1.11 fold | Fold change of plasma hsa-miR-223 [1, 5]: 1.88 fold | Fold change of plasma hsa-miR-301a [1, 5]: 1.79 fold | Fold change of plasma hsa-miR-320a [1, 5]: 1.89 fold | Fold change of plasma hsa-miR-324-5p [1, 5]: 1.39 fold | Fold change of plasma hsa-miR-335-5p [1, 5]: 1.07 fold | Fold change of plasma hsa-miR-340-5p [1, 5]: 1.19 fold | Fold change of plasma hsa-miR-365 [1, 5]: 2.61 fold | Fold change of plasma hsa-miR-423-5p [1, 5]: 4.18 fold | Fold change of plasma hsa-miR-451 [1, 5]: 3.28 fold | Fold change of plasma hsa-miR-484 [1, 5]: 1.46 fold | Fold change of plasma hsa-miR-486-5p [1, 5]: 1.49 fold | Fold change of plasma hsa-miR-542-3p [1, 5]: 11.10 fold | Fold change of plasma hsa-miR-744 [1, 5]: 1.83 fold | Fold change of plasma hsa-let-7c [1, 6]: 1.54 fold | Fold change of plasma hsa-let-7e [1, 6]: 1.66 fold | Fold change of plasma hsa-let-7g [1, 6]: 3.02 fold | Fold change of plasma hsa-let-7d [1, 6]: 1.98 fold | Fold change of plasma hsa-miR-19a [1, 6]: 1.90 fold | Fold change of plasma hsa-miR-19b [1, 6]: 3.27 fold | Fold change of plasma hsa-miR-26a [1, 6]: 1.39 fold | Fold change of plasma hsa-miR-28 [1, 6]: 6.61 fold | Fold change of plasma hsa-miR-29a [1, 6]: 1.31 fold | Fold change of plasma hsa-miR-29b [1, 6]: 2.67 fold | Fold change of plasma hsa-miR-30c [1, 6]: 1.37 fold | Fold change of plasma hsa-miR-30e [1, 6]: 1.06 fold | Fold change of plasma hsa-miR-31 [1, 6]: 1.45 fold | Fold change of plasma hsa-miR-99b [1, 6]: 2.63 fold | Fold change of plasma hsa-miR-107 [1, 6]: 5.54 fold | Fold change of plasma hsa-miR-125a-3p [1, 6]: 12.16 fold | Fold change of plasma hsa-miR-125a-5p [1, 6]: 5.34 fold | Fold change of plasma hsa-miR-126 [1, 6]: 1.27 fold | Fold change of plasma hsa-miR-126-5p (miR-126*) [1, 6]: 2.01 fold | Fold change of plasma hsa-miR-128a [1, 6]: 1.75 fold | Fold change of plasma hsa-miR-130a [1, 6]: 2.30 fold | Fold change of plasma hsa-miR-130b [1, 6]: 1.26 fold | Fold change of plasma hsa-miR-138 [1, 6]: 1.08 fold | Fold change of plasma hsa-miR-139-5p [1, 6]: 1.14 fold | Fold change of plasma hsa-miR-142-3p [1, 6]: 25.04 fold | Fold change of plasma hsa-miR-142-5p [1, 6]: 1.98 fold | Fold change of plasma hsa-miR-143 [1, 6]: 8.47 fold | Fold change of plasma hsa-miR-145 [1, 6]: 2.07 fold | Fold change of plasma hsa-miR-146a [1, 6]: 1.17 fold | Fold change of plasma hsa-miR-152 [1, 6]: 2.05 fold | Fold change of plasma hsa-miR-155 [1, 6]: 1.73 fold | Fold change of plasma hsa-miR-181a [1, 6]: 3.00 fold | Fold change of plasma hsa-miR-186 [1, 6]: 1.83 fold | Fold change of plasma hsa-miR-187 [1, 6]: 1.60 fold | Fold change of plasma hsa-miR-191 [1, 6]: 1.23 fold | Fold change of plasma hsa-miR-196b [1, 6]: 11.73 fold | Fold change of plasma hsa-miR-199a-3p [1, 6]: 3.14 fold | Fold change of plasma hsa-miR-204 [1, 6]: 4.61 fold | Fold change of plasma hsa-miR-214 [1, 6]: 1.57 fold | Fold change of plasma hsa-miR-296-5p [1, 6]: 18.29 fold | Fold change of plasma hsa-miR-302a [1, 6]: 2.10 fold | Fold change of plasma hsa-miR-324-3p [1, 6]: 1.07 fold | Fold change of plasma hsa-miR-331-3p [1, 6]: 1.53 fold | Fold change of plasma hsa-miR-339-5p [1, 6]: 2.18 fold | Fold change of plasma hsa-miR-340-3p [1, 6]: 1.86 fold | Fold change of plasma hsa-miR-342-3p [1, 6]: 1.15 fold | Fold change of plasma hsa-miR-375 [1, 6]: 1.32 fold | Fold change of plasma hsa-miR-449a [1, 6]: 2.99 fold | Fold change of plasma hsa-miR-487b [1, 6]: 2.67 fold | Fold change of plasma hsa-miR-532-3p [1, 6]: 1.72 fold | Fold change of plasma hsa-miR-574-3p [1, 6]: 2.20 fold | Fold change of plasma hsa-miR-30d [1, 6]: 1.29 fold | Myh7 expression in cardiac tissue ([2]; listed as AntimiR-208a, 25 mg/kg): blunted the hypertension-induced increase in Myh7 expression | Myh6 expression in cardiac tissue [2, 7]: prevented the high-salt diet-induced decrease in Myh6 expression; also recorded: prevents this decrease | Myh7 expression in cardiac tissue [2, 7]: reduces this increase | miR-208a in cardiac tissue ([2]; vs HS/Saline): greater inhibition of miR-208a
